Measurements: patent US20240374779A1, “ANTIMICROBIAL ARTICLES, METHODS OF MAKING AND USING SAME” (TERASAKI INSTITUTE FOR BIOMEDICAL INNOVATION, priority 2021, published 2024)

Key:
C. difficile spores = settings: similar concentrations (about 100 ppm) of vaporized hydrogen peroxide; cited from earlier work
[1] = rats; cited from earlier work
[2] = hydrogen peroxide release kinetics from microspheres (dissolved oxygen in PBS with catalase); assay type: physicochemical; settings: early stages (0-3 days); levels decreased gradually
Protocol: The hydrogen peroxide release kinetics of the CPO/PLGA MPS were determined indirectly by measuring the dissolved oxygen levels in phosphate buffered saline (PBS) after breaking down the hydrogen peroxide with catalase. Dissolved oxygen levels were measured by an oxygen sensor probe (ISO-OXY-2, World Precision Instruments), which was connected to the free radical analyzer (TBR1025, World Precision Instruments). MPS with different CPO loading and MPS with different dimensions were evaluated. […] Catalase was used to catalyze the decomposition of hydrogen peroxide to water and oxygen. […] After fully flushed, the hypoxic chamber with glass vials containing samples was sealed and placed into a cell culture incubator at 37° C.

For `OO` [vaporized hydrogen peroxide, hydrogen peroxide], the “time to eradicate C. difficile spores” value (C. difficile spores) is given as no more than 20 min.
For `NC(N)=O` [Urea], the LD50 [1] is listed as “about 15 g/kg”.
In the case of `[Ca+2].[O-][O-]` [free CPO, calcium peroxide], the “peroxide levels with free CPO in PBS” value [2] is reported as “Elevated peroxide levels”.
